{
  "source": "patent US9447100B2",
  "about": "“Substituted pyrazolo[1,5-A] pyrimidines as calcium receptor modulating agents” (Takeda Pharmaceutical Company Limited, priority 2002, dated 2016)",
  "note": "Counter-ions that a name gives are not always drawn.",
  "data": [
    {"units": {"melting point": "°C"}, "values": [
      {"molecule": "CCC(CC)(NC(=O)c1cnn2c1NC(c1ccccc1)CC2(C)C)c1ccc(OCC(=O)O)cc1", "note": "(stereo not shown) [Example 731, (4-(1-(((7,7-dimethyl-5-phenyl-4,5,6,7-tetrahydropyrazolo[1,5-a]pyrimidin-3-yl)carbonyl)amino)-1-ethylpropyl)phenoxy)acetic acid]", "melting point": "213 to 214"},
      {"molecule": "CCC(CC)(NC(=O)c1c(C)nn2c1N[C@@H](c1ccccc1)CC2(C)C)c1ccc(I)cc1", "note": "(as salt: HCl) [Example 1073, (5R)-N-(1-ethyl-1-(4-iodophenyl)propyl)-2,7,7-trimethyl-5-phenyl-4,5,6,7-tetrahydropyrazolo[1,5-a]pyrimidine-3-carboxamide]", "melting point": "179 to 180"},
      {"molecule": "CCC(CC)(NC(=O)c1cnn2c1NC(c1ccccc1)CC2(C)C)c1ccc(-c2ccc(OC)nc2)cc1", "note": "(stereo not shown) [Example 677, N-(1-ethyl-1-(4-(6-methoxy-3-pyridinyl)phenyl)propyl)-7,7-dimethyl-5-phenyl-4,5,6,7-tetrahydropyrazolo[1,5-a]pyrimidine-3-carboxamide]", "melting point": "172 to 173"},
      {"molecule": "CCCC(CC)(CC)NC(=O)c1cnn2c1NC(c1ccccc1)CC2(C)C", "note": "(stereo not shown) [Example 646, N-(1,1-diethylbutyl)-7,7-dimethyl-5-phenyl-4,5,6,7-tetrahydropyrazolo[1,5-a]pyrimidine-3-carboxamide]", "melting point": "76 to 77"},
      {"molecule": "CCC(CC)(NC(=O)c1c(C)nn2c1NC(c1ccccc1C)CC2(C)C)c1ccc(C)cc1", "note": "(stereo not shown) (as salt: HCl) [Example 782, N-(1-ethyl-1-(4-methylphenyl)propyl)-2,7,7-trimethyl-5-(2-methylphenyl)-4,5,6,7-tetrahydropyrazolo[1,5-a]pyrimidine-3-carboxamide]", "melting point": "187 to 188"},
      {"molecule": "COc1ccc(C(NC(=O)c2cnn3c2NC(c2ccccc2)CC3(C)C)c2ccc(OC)cc2)cc1", "note": "(stereo not shown) [Example 407, N-(bis(4-methoxyphenyl)methyl)-7,7-dimethyl-5-phenyl-4,5,6,7-tetrahydropyrazolo[1,5-a]pyrimidine-3-carboxamide]", "melting point": "184 to 185"},
      {"molecule": "CCC(CC)(NC(=O)c1c(C)nn2c1N[C@@H](c1ccccc1)CC2(C)C)c1ccc(Cl)cc1", "note": "(as salt: HCl) [Example 1043, (5R)-N-(1-(4-chlorophenyl)-1-ethylpropyl)-2,7,7-trimethyl-5-phenyl-4,5,6,7-tetrahydropyrazolo[1,5-a]pyrimidine-3-carboxamide]", "melting point": "193 to 194"},
      {"molecule": "CCC(CC)(NC(=O)c1c(C)nn2c1N[C@H](c1ccccc1)CC2(C)C)c1ccc(Cl)cc1", "note": "[Example 1041, (5S)-N-(1-(4-chlorophenyl)-1-ethylpropyl)-2,7,7-trimethyl-5-phenyl-4,5,6,7-tetrahydropyrazolo[1,5-a]pyrimidine-3-carboxamide]", "melting point": "131 to 132"},
      {"molecule": "CCC1(CC)C[C@@H](OCc2ccccc2)CN1C(=O)c1cnn2c1N[C@@H](c1ccccc1)CC2(C)C", "note": "[Example 1103, (5R)-3-(((4R)-4-(benzyloxy)-2,2-diethyl-1-pyrrolidinyl)carbonyl)-7,7-dimethyl-5-phenyl-4,5,6,7-tetrahydropyrazolo[1,5-a]pyrimidine]", "melting point": "118 to 120"},
      {"molecule": "CCc1ccc(C(CC)(CC)NC(=O)c2cnn3c2N[C@@H](c2ccccc2)CC3(C)C)cc1", "note": "(as salt: HCl) [Example 1051, (5R)-N-(1-ethyl-1-(4-ethylphenyl)propyl)-7,7-dimethyl-5-phenyl-4,5,6,7-tetrahydropyrazolo[1,5-a]pyrimidine-3-carboxamide]", "melting point": "149 to 150"},
      {"molecule": "CC1(C)CC(c2ccccc2)Nc2c(C(=O)NC3(C(=O)O)CCCCC3)cnn21", "note": "(stereo not shown) [Example 625, 1-(((7,7-dimethyl-5-phenyl-4,5,6,7-tetrahydropyrazolo[1,5-a]pyrimidin-3-yl)carbonyl)amino)cyclo-hexanecarboxylic acid]", "melting point": "215 to 216"},
      {"molecule": "CCOC(=O)c1ccc(C(CC)(CC)NC(=O)c2c(C)nn3c2N[C@@H](c2ccccc2)CC3(C)C)cc1", "note": "(as salt: HCl) [Example 1074, (5R)-ethyl 4-(1-ethyl-1-(((2,7,7-trimethyl-5-phenyl-4,5,6,7-tetrahydropyrazolo[1,5-a]pyrimidin-3-yl)carbonyl)amino)propyl) benzoate]", "melting point": "125 to 126"},
      {"molecule": "CCC(CC)(Cc1ccc(OC)cc1)NC(=O)c1cnn2c1NC(c1ccccc1)CC2(C)C", "note": "(stereo not shown) [Example 704, N-(1-ethyl-1-(4-methoxybenzyl)propyl)-7,7-dimethyl-5-phenyl-4,5,6,7-tetrahydropyrazolo[1,5-a]pyrimidine-3-carboxamide]", "melting point": "185 to 186"},
      {"molecule": "CCC(CC)(NC(=O)c1cnn2c1NC(c1ccccc1)CC2C(F)(F)F)c1ccc(Br)cc1", "note": "(stereo not shown) [Example 397, N-(1-(4-bromophenyl)-1-ethylpropyl)-5-phenyl-7-(trifluoromethyl)-4,5,6,7-tetrahydropyrazolo[1,5-a]pyrimidine-3-carboxamide]", "melting point": "180 to 181"},
      {"molecule": "O=C(NC12CC3CC(CC(C3)C1)C2)c1cnn2c1NC(c1ccccc1Cl)CC2C(F)(F)F", "note": "(stereo not shown) [Example 281, N-(1-adamantyl)-5-(2-chlorophenyl)-7-(trifluoromethyl)-4,5,6,7-tetrahydropyrazolo[1,5-a]pyrimidine-3-carboxamide]", "melting point": "256 to 257"},
      {"molecule": "CCOc1ccc(C(CC)(CC)NC(=O)c2cnn3c2NC(c2ccccc2)CC3(C)C)cc1", "note": "(stereo not shown) [Example 722, N-(1-(4-ethoxyphenyl)-1-ethylpropyl)-7,7-dimethyl-5-phenyl-4,5,6,7-tetrahydropyrazolo[1,5-a]pyrimidine-3-carboxamide]", "melting point": "141 to 142"},
      {"molecule": "CCC(CC)(NC(=O)c1cnn2c1NC(c1ccccc1)CC2C(F)(F)F)c1cccc(Br)c1", "note": "(stereo not shown) [Example 398, N-(1-(3-bromophenyl)-1-ethylpropyl)-5-phenyl-7-(trifluoromethyl)-4,5,6,7-tetrahydropyrazolo[1,5-a]pyrimidine-3-carboxamide]", "melting point": "167 to 168"},
      {"molecule": "CCC(CC)(NC(=O)c1cnn2c1NC(c1ccccc1)CC2(C)C)c1cccc(Cl)c1", "note": "(stereo not shown) [Example 614, N-(1-(3-chlorophenyl)-1-ethylpropyl)-7,7-dimethyl-5-phenyl-4,5,6,7-tetrahydropyrazolo[1,5-a]pyrimidine-3-carboxamide]", "melting point": "195 to 196"},
      {"molecule": "CC1(C)CC(c2ccccc2)Nc2c(C(=O)NC3(C(N)=O)CCCCC3)cnn21", "note": "(stereo not shown) [Example 626, N-(1-(aminocarbonyl)cyclohexyl)-7,7-dimethyl-5-phenyl-4,5,6,7-tetrahydropyrazolo[1,5-a]pyrimidine-3-carboxamide]", "melting point": "140 to 141"},
      {"molecule": "CCC(CC)(NC(=O)c1cnn2c1NC(c1ccccc1Cl)CC2(C)C)c1ccc(C)cc1", "note": "(stereo not shown) (as salt: HCl) [Example 961, 5-(2-chlorophenyl)-N-[1-ethyl-1-(4-methylphenyl)propyl]-7,7-dimethyl-4,5,6,7-tetrahydropyrazolo[1,5-a]pyrimidine-3-carboxamide]", "melting point": "128 to 130"},
      {"molecule": "CCC1(CC)CC(c2ccccc2)Nc2c(C(=O)NC34CC5CC(CC(C5)C3)C4)cnn21", "note": "(stereo not shown)", "melting point": "213 to 214"},
      {"molecule": "CCC(CC)(NC(=O)c1cnn2c1NC(c1ccccc1C)CC2(C)C)c1ccc(Cl)cc1", "note": "(stereo not shown) [Example 697, N-(1-(4-chlorophenyl)-1-ethylpropyl)-7,7-dimethyl-5-(2-methylphenyl)-4,5,6,7-tetrahydropyrazolo[1,5-a]pyrimidine-3-carboxamide]", "melting point": "143 to 145"},
      {"molecule": "CCC(CC)(NC(=O)c1cnn2c1NC(c1ccccc1)CC2(C)C)c1ccc(Cl)cc1Cl", "note": "(stereo not shown) [Example 680, N-(1-(2,4-dichlorophenyl)-1-ethylpropyl)-7,7-dimethyl-5-phenyl-4,5,6,7-tetrahydropyrazolo[1,5-a]pyrimidine-3-carboxamide]", "melting point": "220 to 222"},
      {"molecule": "CCC(CC)(NC(=O)c1c(C)nn2c1NC(c1cccc(OC)c1)CC2(C)C)c1ccc(C)cc1", "note": "(stereo not shown) (as salt: HCl) [Example 966, N-(1-ethyl-1-(4-methylphenyl)propyl)-5-(3-methoxyphenyl)-2,7,7-trimethyl-4,5,6,7-tetrahydropyrazolo[1,5-a]pyrimidine-3-carboxamide]", "melting point": 146},
      {"molecule": "CCCCOC(=O)CCCOc1ccc(C(CC)(CC)NC(=O)c2cnn3c2NC(c2ccccc2)CC3(C)C)cc1", "note": "(stereo not shown) [Example 818, butyl 4-(4-(1-(((7,7-dimethyl-5-phenyl-4,5,6,7-tetrahydropyrazolo[1,5-a]pyrimidin-3-yl)carbonyl)amino)-1-ethyl-propyl)phenoxy)butanoate]", "melting point": "133 to 134"},
      {"molecule": "CCC(CC)(NC(=O)c1cnn2c1NC(c1ccccc1)CC2(C)C)c1ccc(-c2cccnc2)cc1", "note": "(stereo not shown) (as salt: HCl) [Example 583, N-(1-ethyl-1-(4-(3-pyridinyl)phenyl)propyl)-7,7-dimethyl-5-phenyl-4,5,6,7-tetrahydropyrazolo[1,5-a]pyrimidine-3-carboxamide]", "melting point": "168 to 169"},
      {"molecule": "CC1(C)CC(c2ccccc2)Nc2c(C(=O)NC(c3ccc(Cl)cc3)c3ccc(Cl)cc3)cnn21", "note": "(stereo not shown) [Example 405, N-(bis(4-chlorophenyl)methyl)-7,7-dimethyl-5-phenyl-4,5,6,7-tetrahydropyrazolo[1,5-a]pyrimidine-3-carboxamide]", "melting point": "180 to 181"},
      {"molecule": "CCC(CC)(NC(=O)c1cnn2c1NC(c1ccccc1)CC2C(F)(F)F)c1ccccc1", "note": "(stereo not shown) [Example 396, N-(1-ethyl-1-phenylpropyl)-5-phenyl-7-(trifluoromethyl)-4,5,6,7-tetrahydropyrazolo[1,5-a]pyrimidine-3-carboxamide]", "melting point": "165 to 166"},
      {"molecule": "CCCCOC(=O)CCc1ccc(C(CC)(CC)NC(=O)c2cnn3c2NC(c2ccccc2)CC3(C)C)cc1", "note": "(stereo not shown) (as salt: HCl) [Example 815, butyl 3-(4-(1-(((7,7-dimethyl-5-phenyl-4,5,6,7-tetrahydropyrazolo[1,5-a]pyrimidin-3-yl)carbonyl)amino)-1-ethyl-propyl)phenyl)propanoate]", "melting point": "143 to 144"},
      {"molecule": "CCC(CC)(NC(=O)c1c(C)nn2c1NC(c1ccccc1)CC2(C)C)c1ccc(SC)cc1", "note": "(stereo not shown) [Example 833, N-(1-ethyl-1-(4-(methylthio)phenyl)propyl)-2,7,7-trimethyl-5-phenyl-4,5,6,7-tetrahydropyrazolo[1,5-a]pyrimidine-3-carboxamide]", "melting point": "149 to 150"},
      {"molecule": "CCCCC(CCCC)(NC(=O)c1cnn2c1NC(c1ccccc1)CC2(C)C)c1ccc(C(F)(F)F)cc1", "note": "(stereo not shown) [Example 411, N-(1-butyl-1-(4-(trifluoromethyl)phenyl)pentyl)-7,7-dimethyl-5-phenyl-4,5,6,7-tetrahydropyrazolo[1,5-a]pyrimidine-3-carboxamide]", "melting point": "113 to 114"}
    ]}
  ]
}
